These are literature values, as cited in PMC13095657, “A two-step mechanism for sugar translocation” (Nature Structural & Molecular Biology, 2026).

Structures are written as SMILES.

The target of this data set is T1, XylE (Escherichia coli, UniProt P0AGF4).
T1 construct: made in house; host or cells: E. coli BL21-Gold (DE3)
To be noted: XylE WT in liposomes; ref https://www.jbc.org/action/showPdf?pii=S0021-9258%2821%2901315-6; read-out: KM by SSM.

T1 sequence (P0AGF4 whole entry): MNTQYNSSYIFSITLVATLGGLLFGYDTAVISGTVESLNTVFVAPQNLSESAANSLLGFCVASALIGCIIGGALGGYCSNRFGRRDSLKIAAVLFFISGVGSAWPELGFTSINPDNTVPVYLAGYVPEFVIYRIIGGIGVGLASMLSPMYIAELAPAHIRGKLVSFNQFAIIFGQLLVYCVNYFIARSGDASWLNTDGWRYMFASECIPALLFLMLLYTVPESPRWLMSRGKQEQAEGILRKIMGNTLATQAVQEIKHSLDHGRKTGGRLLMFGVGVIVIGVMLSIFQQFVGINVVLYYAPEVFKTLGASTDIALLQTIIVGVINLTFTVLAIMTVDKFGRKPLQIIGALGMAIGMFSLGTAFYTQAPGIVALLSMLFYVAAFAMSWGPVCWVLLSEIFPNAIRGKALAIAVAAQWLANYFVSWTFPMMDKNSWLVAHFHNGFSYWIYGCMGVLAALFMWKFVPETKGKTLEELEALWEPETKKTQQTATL

As for `OC1OC[C@@H](O)[C@H](O)[C@H]1O` (stereo partly drawn) [D-xylose], the Km was 1700 µM.
